# Experimental data from patent US5665738A, “Imidazole derivatives and processes for the preparation thereof” (Korea Research Institute of Chemical Technology, priority 1994, dated 1997).
# System: angiotensin II receptor
# Experiment: Angiotensin II receptor binding assay ([3H] angiotensin II displacement)
# Details: 60 minutes at 25° C., pH 7.2, test concentration not given
# Description: The inventive compounds were tested to measure their angiotensin II receptor binding capacity as follows.
# 1. Angiotensin II receptor binding assay
# In accordance with the procedure disclosed in Chiu, A. T. et al., Eur. J. Pharm., 157, 13 ([…])t a ligand marked with a radioistope was reacted with an angiotensin II receptor and the reactant was filtered with a glass fiber to remove unreacted ligand. After washing the filter, the amount of the remaining isotope was measured to determine the binding activity of the ligand, as described below in detail.
# (i) Isolation of angiotensin II receptor
# Sprague-Dawley rats and Wistar rats of 250 to 350 g (from The Korea Research Institute of Chemical Technology) were tested and the test procedures were carried out at 4° C., unless otherwise specified. Adrenal gland was separated from the Sprague-Dawley rats (liver, in the case of Wistar rats) into cortex and medulla. The separated adrenal cortex and medulla were washed with a sucrose buffer solution (0.2M sucrose, 1 mM EDTA, 10 mM Tris, pH 7.2) and homogenized in the same buffer solution by using a Teflon pestle and a Brinkmann homogenizer. The homogenates were centrifuged at 3,000× g for 10 minutes to remove precipitates and further centrifuged at 12,000× g for 13 minutes. The final supernatants were centrifuged at 102,000× g for 1 hour to obtain precipitates, which were washed with a Tris buffer solution (50 mM Tris, 5 mM MgCl2, pH 7.2) and re-centrifuged at 102,000× g for 1 hour. The resulting precipitates were immediately processed at the following step or stored at -70° C.
# The precipitates were suspended in a Tris buffer solution. The amount of protein was determined by using a Bio-Rad DC protein analyzing kit and the protein concentration was adjusted to the amounts of: 0.2 to 0.3 mg/ml (Sprague-Dawley rat: adrenal cortex), 1.5 to 2.0 mg/ml (Sprague-Dawley rat: adrenal medulla), and 1.5 to 2.0 mg/ml (Wistar rat: liver). To the suspension, bovine serum albumin (BSA) was added to a concentration of 0.25 wt % and the resultant was immediately processed at the following step or stored at -70° C.
# (ii) Measurement of angiotensin II receptor binding capacity
# 50 μl (based on ligand) of [^3 H] angiotensin II (NEN, NET-446) and 10 μl of each of the test compounds with various concentrations were added to the buffer solution (50 mM Tris (pH 7.2), 5 mM MgCl2, 0.25% BSA) to adjust the final volume to be 0.5 ml. Losartan (Dup 753), which is disclosed in EP No. 400,974 issued to Merck, was used as the control compound. 100 μl of the receptor suspension was added thereto and the resulting solution was reacted for 60 minutes while stirring in a water bath at 25° C. 3 ml of cold buffer solution for analysis was added to cease the reaction. The isotope which was bound to the receptor was isolated from the resultant by using Brandel Cell Harvester System with Whatman glass fiber GF/C. After washing the filter, the radioactivity of the filter was determined by using a liquid scintillation counter. Binding inhibition (%) of the test compound was calculated as follows:
# Binding Inhibition (%)=[{(T-B)-(S-B)}/(T-B)]×100
# wherein T is the radioactivity (cpm) of the reaction product untreated with the test compound, S is the radioactivity (cpm) of the reaction product treated with the test compound, and B is the radioactivity (cpm) of blank test.
row,Structure (SMILES),Binding Inhibition (%)
1,"CCCCc1nc(Cl)c(C(=O)c2cccc(C(OC)OC)[n+]2[O-])n1Cc1ccc(-c2ccccc2-c2nn[nH]n2)cc1 [Compound 1, {2-butyl-5-chloro-3-[(2'-(1H-tetrazol-5-yl)biphenyl-4-yl)methyl]-3H-imidazol-4-yl}[6-(dimethoxymethyl)-1-oxypyridin-2-yl]methanone]",91.1%
2,"CCCCc1nc(Cl)c(C(=O)c2cccc(C=O)[n+]2[O-])n1Cc1ccc(-c2ccccc2-c2nn[nH]n2)cc1 [Compound 2, {2-butyl-5-chloro-3-[(2'-(1H-tetrazol-5-yl)biphenyl-4-yl)methyl]-3H-imidazol-4-yl}(6-formyl-1-oxypyridin-2-yl)methanone]",95.0%
3,"CCCCc1nc(Cl)c(C(=O)c2cccc(CO)[n+]2[O-])n1Cc1ccc(-c2ccccc2-c2nn[nH]n2)cc1 [Compound 3, {2-butyl-5-chloro-3-[(2'-(1H-tetrazol-5-yl)biphenyl-4-yl)methyl]-3H-imidazol-4-yl}(6-hydroxymethyl-1-oxypyridin-2-yl)methanone]",96.3%
4,"CCCCc1nc(Cl)c(C(O)c2cccc(C(OC)OC)n2)n1Cc1ccc(-c2ccccc2-c2nnn[nH]2)cc1 (stereo not drawn) [Compound 4, {2-butyl-5-chloro-3-[(2'-(1H-tetrazol-5-yl)biphenyl-4-yl)methyl]-3H-imidazol-4-yl}[6-(dimethoxymethyl)pyridin-2-yl]methanol]",71.2%
5,"CCCCc1nc(Cl)c(C(O)c2cccc(C=O)n2)n1Cc1ccc(-c2ccccc2-c2nnn[nH]2)cc1 (stereo not drawn) [Compound 5, {2-butyl-5-chloro-3-[(2'-(1H-tetrazol-5-yl)biphenyl-4-yl)methyl]-3H-imidazol-4-yl}(6-formylpyridin-2-yl)methanol]",64.9%
6,"CCCCc1nc(Cl)c(C(=O)c2cccc(C(OC)OC)n2)n1Cc1ccc(-c2ccccc2-c2nnn[nH]2)cc1 [Compound 6, {2-butyl-5-chloro-3-[(2'-(1H-tetrazol-5-yl)biphenyl-4-yl)methyl]-3H-imidazol-4-yl}[6-(dimethoxymethyl)pyridin-2-yl]methanone]",91.2%
7,"CCCCc1nc(Cl)c(C(=O)c2cccc(C=O)n2)n1Cc1ccc(-c2ccccc2-c2nnn[nH]2)cc1 [Compound 7, {2-butyl-5-chloro-3-[(2'-(1H-tetrazol-5-yl)biphenyl-4-yl)methyl]-3H-imidazol-4-yl}(6-formylpyridin-2-yl)methanone]",79.8%
8,"CCCCc1nc(Cl)c(C(=O)c2cccc(CO)n2)n1Cc1ccc(-c2ccccc2-c2nnn[nH]2)cc1 [Compound 8, {2-butyl-5-chloro-3-[(2'-(1H-tetrazol-5-yl)biphenyl-4-yl)methyl]-3H-imidazol-4-yl}[6-(hydroxymethyl)pyridin-2-yl]methanone]",68.9%
9,"CCCCc1nc(Cl)c(C(O)c2cccc(CN(CC)CC)[n+]2[O-])n1Cc1ccc(-c2ccccc2-c2nn[nH]n2)cc1 (stereo not drawn) [Compound 9, {2-butyl-5-chloro-3-[(2'-(1H-tetrazol-5-yl)biphenyl-4-yl)methyl]-3H-imidazol-4-yl}[6-(diethylamino)methyl-1-oxypyridin-2-yl]methanol]",30.5%
10,"CCCCc1nc(Cl)c(C(=O)c2cccc(CN(CC)CC)[n+]2[O-])n1Cc1ccc(-c2ccccc2-c2nn[nH]n2)cc1 [Compound 10, {2-butyl-5-chloro-3-[(2'-(1H-tetrazol-5-yl)biphenyl-4-yl)methyl]-3H-imidazol-4-yl}[6-(diethylamino)methyl-1-oxypyridin-2-yl]methanone]",91.1%
11,"CCCCc1nc(Cl)c(C(=O)c2cccc(C[N+]([O-])(CC)CC)[n+]2[O-])n1Cc1ccc(-c2ccccc2-c2nn[nH]n2)cc1 [Compound 11, {2-butyl-5-chloro-3-[(2'-(1H-tetrazol-5-yl)biphenyl-4-yl)methyl]-3H-imidazol-4-yl}[6-((diethyl)(oxy)amino)methyl-1-oxypyridin-2-yl]methanone]",99.9%
12,"CCCCc1nc(Cl)c(C(O)c2cccc(CN(CC)CC)n2)n1Cc1ccc(-c2ccccc2-c2nnn[nH]2)cc1 (stereo not drawn) [Compound 12, {2-butyl-5-chloro-3-[(2'-(1H-tetrazol-5-yl)biphenyl-4-yl)methyl]-3H-imidazol-4-yl}[6-((diethylamino)methyl)pyridin-2-yl]methanol]",63.2%
13,"CCCCc1nc(Cl)c(C(=O)c2cccc(CN(CC)CC)n2)n1Cc1ccc(-c2ccccc2-c2nnn[nH]2)cc1 [Compound 13, {2-butyl-5-chloro-3-[(2'-(1H-tetrazol-5-yl)biphenyl-4-yl)methyl]-3H-imidazol-4-yl}[6-((diethylamino)methyl)pyridin-2-yl]methanone]",90.5%
14,"CCCCc1nc(Cl)c(C(=O)c2cccc(C[N+]([O-])(CC)CC)n2)n1Cc1ccc(-c2ccccc2-c2nn[nH]n2)cc1 [Compound 14, {2-butyl-5-chloro-3-[(2'-(1H-tetrazol-5-yl)biphenyl-4-yl)methyl]-3H-imidazol-4-yl}[6-[((diethyl)(oxy)amino)methyl]pyridin-2-yl]methanone]",92.1%
15,"CCCCc1nc(Cl)c(C(=O)c2cccc(Br)[n+]2[O-])n1Cc1ccc(-c2ccccc2-c2nn[nH]n2)cc1 [Compound 15, {2-butyl-5-chloro-3-[(2'-(1H-tetrazol-5-yl)biphenyl-4-yl)methyl]-3H-imidazol-4-yl}(6-bromo-1-oxypyridin-2-yl)methanone]",88.6%
16,CCCCc1nc(Cl)c(C(O)c2cccc(Br)[n+]2[O-])n1Cc1ccc(-c2ccccc2-c2nn[nH]n2)cc1 (stereo not drawn) [Compound 16],62.9%
17,"CCCCc1nc(Cl)c(C(=O)c2cccc(Br)n2)n1Cc1ccc(-c2ccccc2-c2nnn[nH]2)cc1 [Compound 17, {2-butyl-5-chloro-3-[(2'-(1H-tetrazol-5-yl)biphenyl-4-yl)methyl]-3H-imidazol-4-yl}(6-bromopyridin-2-yl)methanone]",50.3%
18,"CCCCc1nc(Cl)c(C(O)c2cccc(Br)n2)n1Cc1ccc(-c2ccccc2-c2nnn[nH]2)cc1 (stereo not drawn) [Compound 18, {2-butyl-5-chloro-3-[(2'-(1H-tetrazol-5-yl)biphenyl-4-yl)methyl]-3H-imidazol-4-yl}(6-bromopyridin-2-yl)methanol]",57.1%
19,"CCCCc1nc(Cl)c(C(=O)c2cccc(C(C)O)[n+]2[O-])n1Cc1ccc(-c2ccccc2-c2nn[nH]n2)cc1 (stereo not drawn) [Compound 19, {2-butyl-5-chloro-3-[(2'-(1H-tetrazol-5-yl)biphenyl-4-yl)methyl]-3H-imidazol-4-yl}[6-(1-hydroxyethyl)-1-oxypyridin-2-yl]methanone]",88.7%
20,"CCCCc1nc(Cl)c(C(=O)c2cccc(C(C)=O)[n+]2[O-])n1Cc1ccc(-c2ccccc2-c2nn[nH]n2)cc1 [Compound 20, {2-butyl-5-chloro-3-[(2'-(1H-tetrazol-5-yl)biphenyl-4-yl)methyl]-3H-imidazol-4-yl}(6-acetyl-1-oxypyridin-2-yl)methanone]",89.0%
21,"CCCCc1nc(Cl)c(C(=O)c2cccc(C(=O)OC)[n+]2[O-])n1Cc1ccc(-c2ccccc2-c2nn[nH]n2)cc1 [Compound 21, {2-butyl-5-chloro-3-[(2'-(1H-tetrazol-5-yl)biphenyl-4-yl)methyl]-3H-imidazol-4-yl}(6-methoxycarbonyl-1-oxypyridin-2-yl)methanone]",86.5%
